Experimental data reported in patent publication US9981944B2, “GDF-8 inhibitors” (Rigel Pharmaceuticals, Inc., priority 2015, dated 2018).

Assays:
HIS-TGFβR1 T204D = HIS-TGFβR1 T204D (Homo sapiens (Human), UniProt P36897, T204D); assay: HTRF probe displacement assay, HIS-TGFβR1 T204D; type: binding; conditions: 1 nM HIS-TGFβR1 T204D, 1 hour at room temperature, read-out: TGFBR1T204D IC50
Experimental: (§1) Compounds were dissolved at 10 mM in dimethylsulfoxide (DMSO) and evaluated at eleven concentrations. IC50 values were derived by non-linear regression analysis.

HIS-TGFβR2 WT = HIS-TGFβR2 WT (Homo sapiens (Human), UniProt P37173); assay: HTRF probe displacement assay, HIS-TGFβR2 WT; type: binding; conditions: 1 nM HIS-TGFβR2 WT, 1 hour at room temperature, read-out: TGFBR2WT IC50
Sequence of HIS-TGFβR2 WT (P37173 23-567): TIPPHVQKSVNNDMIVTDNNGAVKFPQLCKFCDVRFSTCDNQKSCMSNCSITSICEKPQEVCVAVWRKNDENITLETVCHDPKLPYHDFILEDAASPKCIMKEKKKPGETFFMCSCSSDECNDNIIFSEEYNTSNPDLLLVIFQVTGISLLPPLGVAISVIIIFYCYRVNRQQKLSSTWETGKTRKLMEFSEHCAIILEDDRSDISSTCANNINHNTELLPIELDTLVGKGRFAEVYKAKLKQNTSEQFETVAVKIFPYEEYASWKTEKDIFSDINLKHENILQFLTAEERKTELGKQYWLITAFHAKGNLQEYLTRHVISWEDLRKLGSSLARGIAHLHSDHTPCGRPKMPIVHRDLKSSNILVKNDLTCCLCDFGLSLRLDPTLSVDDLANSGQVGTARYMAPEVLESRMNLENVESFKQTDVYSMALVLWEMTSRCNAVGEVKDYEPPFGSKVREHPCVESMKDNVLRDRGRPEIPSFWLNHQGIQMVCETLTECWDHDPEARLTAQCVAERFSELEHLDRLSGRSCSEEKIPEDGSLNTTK
Experimental: as §1

Sequence of HIS-TGFβR1 T204D (P36897 34-503 T204D): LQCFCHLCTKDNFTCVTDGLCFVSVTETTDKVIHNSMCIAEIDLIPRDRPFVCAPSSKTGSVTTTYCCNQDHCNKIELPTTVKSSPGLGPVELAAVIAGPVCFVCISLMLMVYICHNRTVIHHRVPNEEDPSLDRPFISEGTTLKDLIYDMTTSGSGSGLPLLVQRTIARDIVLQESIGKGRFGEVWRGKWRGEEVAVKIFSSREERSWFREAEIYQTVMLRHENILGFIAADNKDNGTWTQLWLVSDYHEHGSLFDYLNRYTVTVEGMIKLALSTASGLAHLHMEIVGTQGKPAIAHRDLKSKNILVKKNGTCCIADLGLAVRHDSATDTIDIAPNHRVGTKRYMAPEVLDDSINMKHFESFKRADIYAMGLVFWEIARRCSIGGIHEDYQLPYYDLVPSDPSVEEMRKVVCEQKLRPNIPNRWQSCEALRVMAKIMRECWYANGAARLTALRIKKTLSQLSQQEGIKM

SMILES | IC50 (HIS-TGFβR1 T204D) [nM] | IC50 (HIS-TGFβR2 WT) [nM]
N#Cc1cnc2ccc(-c3cccnc3-c3cccc(F)n3)nn12 [Compound 65, 6-(6′-fluoro-[2,2′-bipyridin]-3-yl)imidazo[1,2-b]pyridazine-3-carbonitrile] | 397 | > 15000
Cc1cccc(-c2ncccc2-c2ccn3ncc(C(=O)NC4COC4)c3n2)n1 [Compound 129, 5-(6′-methyl-[2,2′-bipyridin]-3-yl)-N-(oxetan-3-yl)pyrazolo[1,5-a]pyrimidine-3-carboxamide] | 29 | > 15000
Cc1nc(-c2ncccc2-c2ccc3nc(C(N)=O)cn3c2)ccc1F [Compound 78, 6-(5′-fluoro-6′-methyl-[2,2′-bipyridin]-3-yl)imidazo[1,2-a]pyridine-2-carboxamide] | 15000 | > 15000
Cc1cccc(-c2ncccc2-c2ccc3nccn3c2)n1 [Compound 47, 6-(6′-methyl-[2,2′-bipyridin]-3-yl)imidazo[1,2-a]pyridine] | 3 | > 15000
NC(=O)c1cn2cc(-c3cccnc3-c3cccc(C(F)(F)F)n3)ccc2n1 [Compound 79, 6-(6′-(trifluoromethyl)-[2,2′-bipyridin]-3-yl)imidazo[1,2-a]pyridine-2-carboxamide] | 15000 | > 15000
Cc1nc(-c2ncccc2-c2ccn3ncc(C#N)c3n2)ccc1F [Compound 122, 5-(5′-fluoro-6′-methyl-[2,2′-bipyridin]-3-yl)pyrazolo[1,5-a]pyrimidine-3-carbonitrile] | 242 | > 15000
COC(=O)c1ccc(-c2ncccc2-c2ccc3ncc(C#N)n3c2)nc1 [Compound 25, methyl 3′-(3-cyanoimidazo[1,2-a]pyridin-6-yl)-[2,2′-bipyridine]-5-carboxylate] | 4480 | > 15000
Nc1ncnc2ccc(-c3cccnc3-c3ccc(F)cn3)nc12 [Compound 104, 6-(5′-fluoro-[2,2′-bipyridin]-3-yl)pyrido[3,2-d]pyrimidin-4-amine] | 42 | > 15000
CC(C)(O)c1cccc(-c2ncccc2-c2ccc3ncc(C#N)n3c2)n1 [Compound 41] | 15000 | > 15000
FC(F)(F)c1cccc(-c2ncccc2-c2ccc3nccnc3c2)n1 [Compound 114, 6-(6′-(trifluoromethyl)-[2,2′-bipyridin]-3-yl)quinoxaline] | 16 | > 15000
CC(C)c1cccc(-c2ncccc2-c2ccc3ncnc(N)c3c2)n1 [Compound 108, 6-(6′-isopropyl-[2,2′-bipyridin]-3-yl)quinazolin-4-amine] | 172 | > 15000
Cc1nc(-c2ncccc2-c2ccc3ncc(C#N)n3c2)ccc1F [Compound 15, 6-(5′-fluoro-6′-methyl-[2,2′-bipyridin]-3-yl)imidazo[1,2-a]pyridine-3-carbonitrile] | 10 | > 15000
Cc1cccc(-c2ncccc2-c2ccc3ncc(C(=O)NC4COC4)n3n2)n1 [Compound 74, 6-(6′-methyl-[2,2′-bipyridin]-3-yl)-N-(oxetan-3-yl)imidazo[1,2-b]pyridazine-3-carboxamide] | 108 | > 15000
O=C(O)c1cnn2ccc(-c3cccnc3-c3cccc(C(F)F)n3)nc12 [Compound 135, 5-(6′-(difluoromethyl)-[2,2′-bipyridin]-3-yl)pyrazolo[1,5-a]pyrimidine-3-carboxylic acid] | 107 | > 15000
N#Cc1cnc2ccc(-c3cccnc3-c3ccccn3)cn12 [Compound 13, 6-([2,2′-bipyridin]-3-yl)imidazo[1,2-a]pyridine-3-carbonitrile] | 103 | > 15000
NC(=O)c1cnc2ccc(-c3cc(F)cnc3-c3cccc(C(F)F)n3)cn12 [Compound 84, 6-(6′-(difluoromethyl)-5-fluoro-[2,2′-bipyridin]-3-yl)imidazo[1,2-a]pyridine-3-carboxamide] | 1 | > 15000
Cc1cccc(-c2ncccc2-c2ccc3ncc(C#N)n3n2)n1 [Compound 57, 6-(6′-methyl-[2, 2′-bipyridin]-3-yl) imidazo[1,2-b]pyridazine-3-carbonitrile] | 35 | > 15000
Cc1cccc(-c2ncccc2-c2ccc3nc(C(N)=O)cn3c2)n1 [Compound 80, 6-(6′-methyl-[2,2′-bipyridin]-3-yl)imidazo[1,2-a]pyridine-2-carboxamide] | 1020 | > 15000
NC(=O)c1cnc2ccc(-c3cccnc3-c3cc(F)ccn3)nn12 [Compound 60, 6-(4′-fluoro-[2,2′-bipyridin]-3-yl)imidazo[1,2-b]pyridazine-3-carboxamide] | 161 | > 15000
NC(=O)c1cnc2ccc(-c3cccnc3-c3cccc(C(F)F)n3)cn12 [Compound 29, 6-(6′-(difluoromethyl)-[2,2′-bipyridin]-3-yl)imidazo[1,2-a]pyridine-3-carboxamide] | 1 | > 15000
CCOC(=O)c1cnn2ccc(-c3cccnc3-c3cccc(C(F)(F)F)n3)nc12 [Compound 123, ethyl 5-(6′-(trifluoromethyl)-[2,2′-bipyridin]-3-yl)pyrazolo[1,5-a]pyrimidine-3-carboxylate] | 46 | > 15000
CNC(=O)c1cnn2ccc(-c3cccnc3-c3cccc(C)n3)nc12 [Compound 127, N-methyl-5-(6′-methyl-[2,2′-bipyridin]-3-yl)pyrazolo[1,5-a]pyrimidine-3-carboxamide] | 128 | > 15000
N#Cc1cnc2ccc(-c3cccnc3-c3ccc(F)c(C(F)F)n3)cn12 [Compound 23, 6-(6′-(difluoromethyl)-5′-fluoro-[2,2′-bipyridin]-3-yl)imidazo[1,2-a]pyridine-3-carbonitrile] | 130 | > 15000
Cc1cccc(-c2ncccc2-c2ccn3ncc(C(=O)NC4CC4)c3n2)n1 [Compound 128, N-cyclopropyl-5-(6′-methyl-[2,2′-bipyridin]-3-yl)pyrazolo[1,5-a]pyrimidine-3-carboxamide] | 33 | > 15000
Cc1cccc(-c2nc(C)ccc2-c2ccc3ncc(C(N)=O)n3c2)n1 [Compound 87] | 15 | > 15000
N#Cc1cnc2ccc(-c3cccnc3-c3cccc(OCc4ccccc4)n3)cn12 [Compound 38, 6-(6′-(benzyloxy)-[2,2′-bipyridin]-3-yl)imidazo[1,2-a]pyridine-3-carbonitrile] | 1920 | > 15000

Further compounds by falling IC50 (HIS-TGFβR1 T204D), results first:

IC50 (HIS-TGFβR1 T204D) [nM] | IC50 (HIS-TGFβR2 WT) [nM] | SMILES
1950 | > 15000 | CC(C)c1cccc(-c2ncccc2-c2ccc3ncc(C#N)n3n2)n1 [Compound 63, 6-(6′-isopropyl-[2,2′-bipyridin]-3-yl)imidazo[1,2-b]pyridazine-3-carbonitrile]
907 | > 15000 | CC(=O)Nc1cccc(-c2ncccc2-c2ccc3ncc(C#N)n3c2)n1 [Compound 45, N-(3′-(3-cyanoimidazo[1,2-a]pyridin-6-yl)-[2,2′-bipyridin]-6-yl)acetamide]
61 | > 15000 | N#Cc1cnc2ccc(-c3cccnc3-c3cccc(C(F)F)n3)nn12 [Compound 49, 6-(6′-(difluoromethyl)-[2,2′-bipyridin]-3-yl)imidazo[1,2-b]pyridazine-3-carbonitrile]
43 | > 15000 | COc1cccc(-c2ncccc2-c2ccc3ncc(C#N)n3n2)n1 [Compound 50, 6-(6′-methoxy-[2,2′-bipyridin]-3-yl)imidazo[1,2-b]pyridazine-3-carbonitrile]
28 | > 15000 | CCOC(=O)c1cnn2ccc(-c3cccnc3-c3cccc(C(F)F)n3)nc12 [Compound 134, ethyl 5-(6′-(difluoromethyl)-[2,2′-bipyridin]-3-yl)pyrazolo[1,5-a]pyrimidine-3-carboxylate]
26 | > 15000 | Fc1ccc(-c2ncccc2-c2ccc3nccn3c2)nc1C(F)F [Compound 48, 6-(6′-(difluoromethyl)-5′-fluoro-[2,2′-bipyridin]-3-yl)imidazo[1,2-a]pyridine]
19 | > 15000 | Cc1cccc(-c2ncccc2-c2ccc3ncc(C(N)=O)n3n2)n1 [Compound 58, 6-(6′-methyl-[2,2′-bipyridin]-3-yl)imidazo[1,2-b]pyridazine-3-carboxamide]
15 | > 15000 | FC(F)(F)c1cccc(-c2ncccc2-c2ccn3nccc3n2)n1 [Compound 136, 5-(6′-(trifluoromethyl)-[2,2′-bipyridin]-3-yl)pyrazolo[1,5-a]pyrimidine]
9 | > 15000 | N#Cc1cnc2ccc(-c3cccnc3-c3cccc(C(F)F)n3)cn12 [Compound 28, 6-(6′-(difluoromethyl)-[2,2′-bipyridin]-3-yl)imidazo[1,2-a]pyridine-3-carbonitrile]
9 | > 15000 | CCc1cccc(-c2ncccc2-c2ccc3ncnc(N)c3c2)n1 [Compound 107, 6-(6′-ethyl-[2,2′-bipyridin]-3-yl)quinazolin-4-amine]
4 | > 15000 | COCCNC(=O)c1cnc2ccc(-c3cccnc3-c3cccc(C)n3)cn12 [Compound 70, N-(2-methoxyethyl)-6-(6′-methyl-[2,2′-bipyridin]-3-yl)imidazo[1,2-a]pyridine-3-carboxamide]
4 | > 15000 | Nc1ncnc2ccc(-c3cccnc3-c3cccc(C4CC4)n3)nc12 [Compound 106, 6-(6′-cyclopropyl-[2,2′-bipyridin]-3-yl)pyrido[3,2-d]pyrimidin-4-amine]
0.4 | > 15000 | NC(=O)c1cnc2ccc(-c3cccnc3-c3cccc(Cl)n3)cn12 [Compound 46, 6-(6′-chloro-[2,2′-bipyridin]-3-yl)imidazo[1,2-a]pyridine-3-carboxamide]
